Experimental data: patent US20050058636A1, “Medicament against thrombotic diseases” (priority 2002, published 2005)

Tests used:
[1] = tested on: platelets; assay: Platelet adhesion onto vitronectin-coated plates; assay type: cell-based; conditions: competitors each 250 nM (FIG. 4)
Description: Multiwell plates were coated with 5 μg/ml multimeric vitronectin (dissolved in bicarbonate buffer, pH 9.6) and blocked with 3% (wt/vol) bovine serum albumin for 16 h at 4° C. Platelets stained with calcein acetoxymethyl ester (calcein-AM, 2.5 μM) (15 min at 37° C. in the dark) at a density of 5×10^6 cells suspended in 50 μl HEPES-Tyrode buffer containing 4 mM MgCl2 were added together with the respective competitors and incubated for 30 min at 37° C. After three washes with phosphate buffered saline, bound platelets were lysed with 100 μl of lysis buffer (150 mM NaCl, 10 mM Tris-CH1, pH 7.5, 5 mM EDTA, 1% (wt/vol) NP-40, 1 mM phenyl-methylsulfonyl fluoride, 20 μg/ml soybean trypsin inhibitor) and quantified in a fluorescent plate reader (excitation filter 492 nm, emission filter 535 nm).
FIG. 4. The adhesion of platelets to vitronectin in the absence (−) or presence of HK, HKa, GST-domain 5(D5), or the peptides HK483 and HK486 (each 250 nM) was carried out. Cell adhesion is presented as % of control.

[2] = tested on: platelet-rich plasma; assay: Aggregation of platelet-rich plasma; assay type: cell-based; conditions: Adenosin-diphosphate (5 μM)-induced; competitors each 1000 nM (FIG. 5)
Description: Platelet-rich plasma from fresh whole blood in sodium citrate was prepared by centrifugation of anticoagulated whole blood at 150 g for 20 min. After incubation of 0.45 ml of platelet rich plasma with different kininogen forms as indicated in the figure legends, and addition of 5 μl of […] at a final concentration of 5 μM, platelet aggregation was induced. Aggregation was quantitated by following the change in light transmission in a standardized aggregometer.
FIG. 5 Adenosin-diphosphate (5 μM)-induced aggregation of platelet-rich plasma was performed in the absence (−) or presence of GST-domain 5 (D5), or the peptides HK483 and HK486 (each 1000 nM). Platelet aggregation is presented as % of control.

[3] = tested on: PAI-1; assay: Urokinase-mediated clot lysis in the presence of PAI-1; assay type: biochemical; conditions: not shown
[4] = target: T1, binding of PAI-1 to vitronectin in PAI-1-depleted extracellular matrix of endothelial cells (Homo sapiens, UniProt P04004); assay: Binding of PAI-1 to endothelial cell matrix; conditions: 2 μg/ml PAI-1; competitors each 500 nM; 10 μM ZnCl2 (FIG. 1)
T1 construct: The extracellular matrix of human umbilical vein endothelial cells was prepared according to standard procedures; endogenous in cells; host or cells: extracellular matrix of human umbilical vein endothelial cells, glycine-treated
T1 sequence (P04004 20-478): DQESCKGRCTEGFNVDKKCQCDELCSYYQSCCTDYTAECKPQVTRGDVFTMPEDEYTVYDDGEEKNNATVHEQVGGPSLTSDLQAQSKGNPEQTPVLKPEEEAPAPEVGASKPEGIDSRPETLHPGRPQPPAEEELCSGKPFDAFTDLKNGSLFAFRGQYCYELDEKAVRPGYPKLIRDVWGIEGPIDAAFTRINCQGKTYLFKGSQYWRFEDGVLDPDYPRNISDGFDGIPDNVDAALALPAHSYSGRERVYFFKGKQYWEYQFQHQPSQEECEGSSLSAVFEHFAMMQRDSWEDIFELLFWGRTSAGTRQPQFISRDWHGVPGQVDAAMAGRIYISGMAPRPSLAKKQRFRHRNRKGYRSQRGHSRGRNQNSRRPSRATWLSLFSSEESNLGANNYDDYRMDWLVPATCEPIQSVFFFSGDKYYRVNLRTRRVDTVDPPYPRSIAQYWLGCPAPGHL
Description: The extracellular matrix of human umbilical vein endothelial cells was prepared according to standard procedures. PAI-1-depleted extracellular matrix was obtained by subsequent incubation with glycine (0.1 M, pH 2.3) for 2 h at 25° C. Wells were washed and blocked with phosphate buffered saline containing 3% (wt/vol) bovine serum albumin before proceeding with binding assays. Binding of PAI-1 (2 μg/ml) to the extracellular matrix was performed in a final volume of 50 μl Tris-buffered saline containing 0.1% Tween-20, 0.3% (wt/vol) bovine serum albumin for 2 h at 22° C. in the absence or presence of […] and different kininogen forms. Following the incubation period and a washing step, bound PAI-1 was quantitated by anti-human PAI-1 monoclonal antibody 12A4, followed by addition of 1:1000 diluted peroxidase-conjugated goat anti-mouse immunoglobulins. The conversion of the substrate 2,2,-azino-di(3-ethyl) benz-thiazoline sulphate was monitored at 405 nm in a Thermomax microtiter plate reader. […]
FIG. 1 The binding of 2 μg/ml PAI-1 to PAI-1-depleted (2 h glycine preincubation) extracellular matrix of cultured endothelial cells was tested in the absence (−)or presence of HK, HKa, GST-domain 5 (D5), the peptides HK483 and HK486 (each 500 nM) in a buffer containing 10 μM ZnCl2. Specific binding of PAI-1 is presented as absorbance at 405 nm.

[5] = target: T2, platelet αIIbβ3-integrin with vitronectin (Homo sapiens, UniProt P04004); assay: Binding of vitronectin to αIIbβ3-integrin; conditions: vitronectin 2 μg/ml, immobilized αIIbβ3-integrin 5 μg/ml, 10 μM ZnCl2 (FIG. 3)
T2 sequence (P04004 20-478): T1 sequence (P04004 20-478)
Description: Microtiter plates were coated with 5 μg/ml αIIbβ3-integrin in Tris-buffered saline, pH 7.4, containing 1 mM CaCl2, 1 mM MgCl2 overnight at 4° C. and then blocked with 3% (w/v) bovine serum albumin. Binding of multimeric vitronectin (2 μg/ml) was performed in a final volume of 50 μl Tris-buffered saline containing 0.1% Tween-20, 0.3% (w/v) bovine serum albumin, 1 mM CaCl2 and 1 mM MgCl2 for 2 h at 22° C. in the absence or presence of 10 μM ZnCl2 and different kininogen forms. After the incubation period, monoclonal anti-vitronectin antibody VN7 at a concentration of 125 ng/ml was added, followed by addition of 1:1000 diluted peroxidase-conjugated goat anti-mouse immunoglobulins, respectively. Binding was quantitated as described above.
FIG. 3 The binding of vitronectin (2 μg/ml) to immobilized αIIbβ3-integrin (5 μg/ml) in the absence or presence of increasing concentrations of PAI-1 (filled squares), HKa (filled circles) or GST-domain 5 (open circles) in a buffer containing 10 μM ZnCl2 was carried out. Specific binding is presented as absorbance at 405 nm.

His-483-Gly-497 (HGHGKHKNKGKKNGK; UniProt P01042 501-515, looked up, fragment) [HK483, peptide derived from the carboxy-terminus of the domain 5 of HK]
αIIbβ3-integrin-mediated platelet adhesion to vitronectin [1]: block
aggregation of platelet-rich plasma [2]: inhibit
urokinase-mediated clot lysis, which is inhibited in the presence of PAI-1 [3]: enhance
binding of PAI-1 to vitronectin in PAI-1-depleted (glycine-treated) extracellular matrix of endothelial cells [4]: inhibited
interaction of platelet αIIbβ3-integrin with vitronectin [5]: block
